These results are taken from patent US20150025120A1, “PYRAZOLE-ALCOHOL COMPOUNDS AND PHARMACEUTICAL USE THEREOF” (JAPAN TOBACCO INC., priority 2013, published 2015).

What is called IC50 is the concentration at which inhibition is half-maximal.

Series [1] can be described thus: Metabolic stability test in liver microsome (rat). It counts as in vitro ADME. On the technique in general: Liver microsomes are vesicles of endoplasmic reticulum, rich in cytochrome P450 enzymes.
A further series deals with T1, human PDHK2 (hPDHK2) (Homo sapiens, UniProt Q15119).
T1 construct: made in house; host or cells: Escherichia coli BL21(DE3), pET17b
Description: Inhibitory action of PDHK2 activity in vitro (residual PDH activity after kinase reaction). Format: biochemical. Here is the method:
The inhibitory action of PDHK activity was assessed indirectly by measuring the residual PDH activity after kinase reaction in the presence of a test compound.
In the case of human PDHK2 (hPDHK2, Genbank Accession No. BC040478.1), modified hPDHK2 cDNA wherein FLAG-Tag sequence was added to the N terminus of hPDHK2 cDNA clone (pReceiver-M01/PDK2-GeneCopoeia) was prepared by PCR and cloned into a vector (pET17b-Novagen). The recombinant construct was transformed into Escherichia coli (DH5α-TOYOBO). The recombinant clones were identified, and plasmid DNA was isolated and subjected to the DNA sequence analysis. One clone which had the expected nucleic acid sequence was selected for expression work.
For expression of hPDHK2 activity, Escherichia coli strain BL21(DE3) cells (Novagen) were transformed with the pET17b vector containing modified hPDHK2 cDNA. The Escherichia coli were grown to an optical density 0.6 ([…]) at 30° C. Protein expression was induced by the addition of 500 μmol/L isopropyl-β-thiogalactopyranoside. The Escherichia coli were cultured at 30° C. for 5 hr and harvested by centrifugation. Resuspension of the Escherichia coli paste was disrupted by a microfluidizer. FLAG-Tagged protein was purified using FLAG affinity gel. The gel was washed with 20 mmol/L HEPES-NaOH, 500 mmol/L sodium chloride, 1% ethylene glycol, and 0.1% Pluronic F-68 (pH 8.0), and the binding protein was eluted with 20 mmol/L HEPES-NaOH, 100 μg/mL FLAG peptide, 500 mmol/L sodium chloride, 1% ethylene glycol, and 0.1% Pluronic F-68 (pH 8.0). The eluted fractions containing FLAG-Tagged protein were pooled, dialyzed against 20 mmol/L HEPES-NaOH, 150 mmol/L sodium chloride, 0.5 mmol/L EDTA, 1% ethylene glycol, and 0.1% Pluronic F-68 (pH 8.0), and preserved at −80° C.
0.05 U/mL PDH and 0.8 μg/mL hPDHK2 were mixed in a buffer (50 mmol/L 3-morpholinopropanesulfonic acid (pH 7.0), 20 mmol/L dipotassium hydrogen phosphate, 60 mmol/L potassium chloride, 2 mmol/L magnesium chloride, 0.4 mmol/L EDTA, and 0.2% Pluronic F-68, 2 mmol/L dithiothreitol), and the mixture was incubated at 4° C. overnight to obtain a PDH/hPDHK2 complex. The test compounds were diluted with DMSO. […] DMSO (1.5 μL) was added to control wells instead of the test compound. […] The mixture was incubated at room temperature for 90 min, and the residual PDH activity was measured. The absorbance at 340 nm before and after PDH reaction was measured using a microplate reader to detect NADH produced by the PDH reaction. The hPDHK2 inhibition rate (%) of the test compound was calculated from the formula [{(PDH activity of test compound−PDH activity of control)/PDH activity of blank−PDH activity of control)}×100].

Another series relates to tissue PDH activity. In words: Ex vivo PDH activation assay (liver and epididymal adipose tissue after oral administration). Format: in vivo, Sprague-Dawley rats. Particulars: 3 mg/kg, rat, mean ± standard deviation. As for the experimental part:
The action of test compound on tissue PDH activity was evaluated. NADH production was detected via p-iodonitrotetrazolium violet (INT)-coupled system to measure PDH activity.
Normal male Sprague-Dawley rats were randomly allocated to the vehicle group and the test compound groups. The vehicle (0.5% aqueous methylcellulose solution, 5 mL/kg) or the test compound was orally administered to the rats. At 5 or 20 hr after administration, the rats were anesthetized with an intraperitoneal injection of sodium pentobarbital (60 mg/kg), and liver slices and epididymal adipose tissues were collected.
To the liver slices were rapidly added 9 volumes of ice-cold homogenization buffer (0.25 mol/L sucrose, 5 mmol/L tris(hydroxymethyl)aminomethane hydrochloride (pH 7.5), 2 mmol/L EDTA), and the mixtures were homogenized using a Polytron homogenizer. The homogenates were centrifuged at 600×g, 4° C. for 10 min to obtain the supernatant. The supernatants (1 mL) were centrifuged at 16,000×g, 4° C. for 10 min to collect the precipitates. The precipitates were washed by resuspension in the homogenization buffer (1 mL) and centrifuged in the same manner. The precipitates were frozen with liquid nitrogen and stored at −80° C. as the liver mitochondrial fraction.
To the adipose tissues were rapidly added 3 volumes of an ice-cold homogenization buffer, and the mixtures were homogenized using a Polytron homogenizer. The homogenates were centrifuged at 600×g, 4° C. for 10 min to obtain the supernatant. The supernatants were centrifuged at 16,000×g, 4° C. for 10 min to collect the precipitates. The precipitates were washed by resuspension in the homogenization buffer (1 mL) and centrifuged in the same manner. The precipitates were frozen with liquid nitrogen and stored at −80° C. as the adipose tissue mitochondrial fraction.
The mitochondrial fractions were thawed and suspended with the sample buffer (0.25 mol/L sucrose, 20 mmol/L tris(hydroxymethyl)aminomethane hydrochloride (pH 7.5), 50 mmol/L potassium chloride, and 1 mL/L 4-(1,1,3,3-tetramethylbutyl)phenyl-polyethylene glycol (Triton X-100)). Active PDH activity (PDHa activity) and total PDH activity (PDHt activity) were measured to evaluate the PDH activity. For the measurement of the PDHt activity, equal amounts of the mitochondrial suspension and the activation buffer (0.25 mol/L sucrose, 20 mmol/L tris(hydroxymethyl)aminomethane hydrochloride (pH 7.5), 50 mmol/L potassium chloride, 1 mL/L Triton X-100, 4 mmol/L calcium chloride, 40 mmol/L magnesium chloride, 10 mmol/L sodium dichloroacetate) were mixed, and the mixtures were incubated at 37° C. for 10 min. Forty microliters of the mitochondrial suspensions diluted with a sample buffer were added to a 96-well microplate for activity measurement and blank measurement. Then 180 μL of the reaction mixture (0.056 mmol/L potassium phosphate buffer (pH 7.5), 5.6 mmol/L DL-carnitine, 2.8 mmol/L NAD, 0.22 mmol/L thiamin pyrophosphate, 0.11 mmol/L Coenzyme A, 1.1 mL/L Triton X-100, 1.1 mmol/L magnesium chloride, 1.1 g/L bovine serum albumin, 0.67 mmol/L INT, 7.2 μmol/L phenazine methosulfate, 28 mmol/L sodium oxamate) was added to each well, and then 20 μL of 50 mmol/L sodium pyruvate for activity measurement or water for blank measurement were added. The mixtures were incubated at room temperature under shading. The absorbances at 500-750 nm, which were attributable to reduction of INT, the final electron acceptor, were measured using a microplate reader over time and the changes in the absorbance were calculated. The PDH activity was calculated by subtraction of the change in absorbance of the blank well from that of the activity measurement well. The percentage of the PDHa activity to the PDHt activity was calculated and taken as an index of the PDH activation.

Series [2] can be described thus: Metabolic stability test in liver microsome (human). Conditions: 5 μM test compound. Format: in vitro ADME. Here is the method:
Human liver microsome (manufactured by Xenotech, H0620, final concentration (after dilution), 0.2 mg protein/mL) was suspended in 100 mM potassium phosphate buffer (pH 7.4, containing β-nicotinamide adenine dinucleotide phosphate: 1.3 mM, D-glucose-6-phosphate: 3.3 mM, magnesium chloride: 3.3 mM, glucose-6-phosphate dehydrogenase: 0.45 U/mL), and further mixed with a test compound dissolved in MeCN/DMSO (95/5) (final concentration 5 μM). The mixture was incubated at 37° C. for 10 min and 60 min, acetonitrile containing formic acid (final concentration 0.1%) was added, and the mixture was centrifuged. The test compound (unmodified) in the supernatant was measured by high performance liquid chromatography/mass spectrometry (LC/MS) (manufactured by Waters, LC: Acquity UPLC, MS:SQ Detector or TQ Detector). The residual ratio (%) was calculated from the obtained measurement value.

`CC(C)(O)CCOc1cc(-c2cnn(CC(C)(C)O)c2)c2c(c1)[C@@](O)(C(F)(F)F)c1ccccc1-2` [compound (3), (9R)-2-(3-hydroxy-3-methylbutoxy)-4-[1-(2-hydroxy-2-methylpropyl)-1H-pyrazol-4-yl]-9-(trifluoromethyl)-9H-fluoren-9-ol]: the “stability in liver microsome (residual ratio %)” value in series [1] (10 min) came out at 98.2%; in series [1] (60 min), 99.7%; in series [2] (10 min) it was 96.0%; in series [2] (60 min), 85.3%. The compound also registered an IC50 on human PDHK2 (hPDHK2) of 4.6 nM. The “PDHa activity (% PDHt activity)” value was found to be 58 ± 7 % PDHt activity in the series on tissue PDH activity (adipose tissue, 5 hr after oral administration); 40 ± 3 % PDHt activity with tissue PDH activity (adipose tissue, 20 hr after oral administration); 51 ± 13 % PDHt activity with tissue PDH activity (liver, 5 hr after oral administration); 31 ± 12 % PDHt activity in the series with tissue PDH activity (liver, 20 hr after oral administration).
